Molecular target: T1, JNK1 (Homo sapiens, UniProt P45983)
T1 construct: purchased Carna Biosciences
Test: JNK1 biochemical assays (one or more of: time resolved fluorescence, Z'-LYTE Cascade, radioactive)
Conditions: Table 2; JNK1 IC50 activity level; read-out: Act. Level

T1 sequence (P45983 whole entry): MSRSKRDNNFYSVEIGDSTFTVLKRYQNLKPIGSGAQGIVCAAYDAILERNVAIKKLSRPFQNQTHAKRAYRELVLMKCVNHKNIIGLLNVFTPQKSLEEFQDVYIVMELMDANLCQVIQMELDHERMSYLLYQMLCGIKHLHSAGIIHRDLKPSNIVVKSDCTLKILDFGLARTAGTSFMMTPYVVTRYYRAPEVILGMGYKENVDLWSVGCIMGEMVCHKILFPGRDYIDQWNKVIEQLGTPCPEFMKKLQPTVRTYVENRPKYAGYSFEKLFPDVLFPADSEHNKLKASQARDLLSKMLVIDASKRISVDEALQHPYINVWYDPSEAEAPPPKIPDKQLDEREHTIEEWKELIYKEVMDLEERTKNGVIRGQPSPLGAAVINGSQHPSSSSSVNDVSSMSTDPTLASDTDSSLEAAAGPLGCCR

Row | IC50 [nM] | SMILES
1 | < 200 | COc1cc(Nc2ncc(C(N)=O)c(Nc3ccccc3)n2)cc(OC)c1 [Example B-23, 2-(3,5-dimethoxyphenylamino)-4-(phenylamino)pyrimidine-5-carboxamide]
2 | < 200 | C[C@@H]1CC[C@@H](Nc2nc(N[C@@H]3CCc4ncccc4C3)ncc2C(N)=O)C[C@H]1O [Example B-94, 4-((1R,3R,4R)-3-hydroxy-4-methylcyclohexylamino)-2-((R)-5,6,7,8-tetrahydroquinolin-6-ylamino)pyrimidine-5-carboxamide]
3 | < 200 | NC(=O)c1cnc(NC2CCOCC2)nc1Nc1ccc2cn[nH]c2c1 [Example B-3, 4-(1H-indazol-6-ylamino)-2-(tetrahydro-2H-pyran-4-ylamino)pyrimidine-5-carboxamide]

Same assay, conditions: Table 3; JNK1 IC50 activity level; read-out: Act. Level

Row | IC50 [nM] | SMILES
4 | < 200 | CCC(C)(C)Nc1nc(N[C@H]2CC[C@H](O)CC2)ncc1C#N [Example C-62, 2-((1r,4r)-4-hydroxycyclohexylamino)-4-(tert-pentylamino)pyrimidine-5-carbonitrile]
5 | < 200 | C[C@@H]1CC[C@@H](Nc2nc(N[C@H]3CC[C@H](C(=O)N(C)C)CC3)ncc2C#N)C[C@H]1O [Example C-47, (1R,4r)-4-(5-cyano-4-((1R,3R,4R)-3-hydroxy-4-methylcyclohexylamino)pyrimidin-2-ylamino)-N,N-dimethylcyclohexanecarboxamid]
6 | 1000 to 10000 | CCO[C@H]1CC[C@H](Nc2ncc(C#N)c(N[C@@H]3CCOC3)n2)CC1 [Example C-39, 2-((1r,4R)-4-ethoxycyclohexylamino)-4-((R)-tetrahydrofuran-3-ylamino)pyrimidine-5-carbonitrile]
7 | < 200 | CCO[C@H]1CC[C@H](Nc2ncc(C#N)c(N[C@@H]3CCCC[C@H](O)C3)n2)CC1 [Example C-29, 2-((1r,4R)-4-ethoxycyclohexylamino)-4-((1R,3S)-3-hydroxycycloheptylamino) pyrimidine-5-carbonitrile]

Same assay, conditions: one or more of the JNK1 biochemical assays; read-out: Act. Level (JNK1 IC50 activity level)

Row | IC50 [nM] | SMILES
8 | < 200 | C[C@@H]1CC[C@@H](Nc2nc(N[C@H](C)C3CC3)ncc2C(N)=O)C[C@H]1O [Example 394, 2-((R)-1-cyclopropylethylamino)-4-((1R,3R,4R)-3-hydroxy-4-methylcyclohexylamino)pyrimidine-5-carboxamide]
9 | < 200 | CCCC(C)(C)Nc1nc(N[C@H]2CC[C@H](OCC)CC2)ncc1C(N)=O [Example 391, 2-((1r,4r)-4-ethoxycyclohexylamino)-4-(2-methylpentan-2-ylamino)pyrimidine-5-carboxamide]
10 | < 200 | NC(=O)c1cnc(N[C@H]2CC[C@H](OC(F)F)CC2)nc1N[C@@H]1CCC[C@H]1CO [Example 329, 2-((1r,4R)-4-(difluoromethoxy)cyclohexylamino)-4-((1R,2R)-2-(hydroxymethyl)cyclopentylamino)pyrimidine-5-carboxamide]
11 | < 200 | CCO[C@H]1CC[C@H](Nc2ncc(C(N)=O)c(N[C@H](CC)C3CC3)n2)CC1 [Example 375, 4-((R)-1-cyclopropylpropylamino)-2-((1r,4R)-4-ethoxycyclohexylamino)pyrimidine-5-carboxamide]
12 | < 200 | CO[C@H]1CC[C@H](Nc2ncc(C(N)=O)c(N[C@H](C)C(C)C)n2)CC1 [Example 291, 2-((1r,4R)-4-methoxycyclohexylamino)-4-((R)-3-methylbutan-2-ylamino)pyrimidine-5-carboxamide]
13 | < 200 | CC(C)C(C)(C)Nc1ncc(C(N)=O)c(N[C@@H]2CC[C@@H](C)[C@H](O)C2)n1 [Example 366, 2-(2,3-dimethylbutan-2-ylamino)-4-((1R,3R,4R)-3-hydroxy-4-methylcyclohexylamino)pyrimidine-5-carboxamide]
14 | < 200 | CCC(C)(C)Nc1ncc(C(N)=O)c(N[C@@H]2CCCC[C@H](O)C2)n1 [Example 349, 4-((1R,3S)-3-hydroxycycloheptylamino)-2-(tert-pentylamino)pyrimidine-5-carboxamide]
15 | < 200 | CO[C@H]1CC[C@H](Nc2ncc(C(N)=O)c(N[C@]3(C)CCC[C@H](O)C3)n2)CC1 [Example 215, 4-((1R,3S)-3-hydroxy-1-methylcyclohexylamino)-2-((1r,4R)-4-methoxycyclohexylamino)pyrimidine-5-carboxamide]
16 | < 200 | C[C@@H]1CC[C@@H](Nc2nc(N[C@H](C)C3CCC3)ncc2C(N)=O)C[C@H]1O [Example 459, 2-((R)-1-cyclobutylethylamino)-4-((1R,3R,4R)-3-hydroxy-4-methylcyclohexylamino)pyrimidine-5-carboxamide]
17 | < 200 | CC1(Nc2ncc(C(N)=O)c(N[C@@H]3CCC[C@H](O)C3)n2)CC1 [Example 438, 4-((1R,3S)-3-hydroxycyclohexylamino)-2-(1-methylcyclopropylamino)pyrimidine-5-carboxamide]
18 | < 200 | CO[C@H]1CC[C@H](Nc2ncc(C(N)=O)c(NC3CCC3C)n2)CC1 (stereo partly drawn) [Example 243, 2-((1r,4r)-4-methoxycyclohexylamino)-4-(2-methylcyclobutylamino)pyrimidine-5-carboxamide]
19 | 200 to 800 | CNc1nc(N[C@H]2CC[C@H](O)CC2)ncc1C(N)=O [Example 270, 2-((1r,4r)-4-hydroxycyclohexylamino)-4-(methylamino)pyrimidine-5-carboxamide]
20 | < 200 | CCC(C)(CC)Nc1nc(N[C@H]2CC[C@H](O)CC2)ncc1C(N)=O [Example 262, 2-((1r,4r)-4-hydroxycyclohexylamino)-4-(3-methylpentan-3-ylamino)pyrimidine-5-carboxamide]
21 | < 200 | CC(C)[C@H](C)Nc1ncc(C(N)=O)c(N[C@@H]2CC[C@@H](C)[C@H](O)C2)n1 [Example 471, 4-((1R,3R,4R)-3-hydroxy-4-methylcyclohexylamino)-2-((S)-3-methylbutan-2-ylamino)pyrimidine-5-carboxamide]
22 | < 200 | CC[C@H](Nc1nc(N[C@H]2CC[C@H](O)CC2)ncc1C(N)=O)C1CC1 [Example 384, 4-((S)-1-cyclopropylpropylamino)-2-((1r,4S)-4-hydroxycyclohexylamino)pyrimidine-5-carboxamide]
23 | < 200 | CC[C@@H](C)Nc1ncc(C(N)=O)c(N[C@@H]2CC[C@@H](C)[C@H](O)C2)n1 [Example 383, 2-(sec-butylamino)-4-((1R,3R,4R)-3-hydroxy-4-methylcyclohexylamino)pyrimidine-5-carboxamide]
24 | < 200 | CN[C@H]1CC[C@H](Nc2ncc(C(N)=O)c(NC(C)C)n2)CC1 [Example 214, 4-(isopropylamino)-2-((1r,4r)-4-(methylamino)cyclohexylamino)pyrimidine-5-carboxamide]
25 | < 200 | CC1(Nc2nc(N[C@H]3CC[C@H](OC4CC4)CC3)ncc2C(N)=O)CCC1 [Example 400, 2-((1r,4r)-4-cyclopropoxycyclohexylamino)-4-(1-methylcyclobutylamino)pyrimidine-5-carboxamide]
26 | < 200 | NC(=O)c1cnc(N[C@H]2CC[C@H](O)CC2)nc1NCC1CC1 [Example 226, 4-(cyclopropylmethylamino)-2-((1r,4r)-4-hydroxycyclohexylamino)pyrimidine-5-carboxamide]

Same assay, conditions: tested in one or more of the JNK1 biochemical assays; read-out: Act. Level (JNK1 biochemical assay IC50 activity level)

Row | IC50 [nM] | SMILES
27 | < 200 | COC[C@H]1CC[C@@H](Nc2nc(N[C@H]3CC[C@H](O)CC3)ncc2C(N)=O)CC1 [Example A-109, 2-((1r,4r)-4-hydroxycyclohexylamino)-4-((1s,4s)-4-(methoxymethyl)cyclohexylamino)pyrimidine-5-carboxamide]
28 | < 200 | CO[C@H]1CC[C@H](Nc2ncc(C(N)=O)c(N[C@@H]3CCC[C@@H]3CO)n2)CC1 [Example A-36, 4-((1R,2S)-2-(hydroxymethyl)cyclopentylamino)-2-((1r,4R)-4-methoxycyclohexylamino)pyrimidine-5-carboxamide]
29 | 200 to 800 | CO[C@H]1CC[C@H](Nc2ncc(C(N)=O)c(N[C@H]3CCC[C@H]3CO)n2)CC1 [Example A-37, 4-((1S,2R)-2-(hydroxymethyl)cyclopentylamino)-2-((1r,4S)-4-methoxycyclohexylamino)pyrimidine-5-carboxamide]
30 | < 200 | NC(=O)c1cnc(NC2CCOCC2)nc1N[C@@H]1CCC[C@H](O)C1 [Example A-57, 4-((1R,3S)-3-hydroxycyclohexylamino)-2-(tetrahydro-2H-pyran-4-ylamino)pyrimidine-5-carboxamide]
31 | < 200 | NC(=O)c1cnc(N[C@H]2CC[C@H](N3CCCC3)CC2)nc1N[C@@H]1CCC[C@H](O)C1 [Example A-153, 4-((1R,3S)-3-hydroxycyclohexylamino)-2-((1r,4R)-4-(pyrrolidin-1-yl)cyclohexylamino)pyrimidine-5-carboxamide]
32 | < 200 | CC(C)CNc1nc(N[C@H]2CC[C@H](O)CC2)ncc1C(N)=O [Example A-88, 2-((1r,4r)-4-hydroxycyclohexylamino)-4-(isobutylamino)pyrimidine-5-carboxamide]
33 | < 200 | NC(=O)c1cnc(N[C@H]2CC[C@H](OC(F)F)CC2)nc1N[C@@H]1CCC[C@H]1O [Example A-4, 2-((1r,4R)-4-(difluoromethoxy)cyclohexylamino)-4-((1R,2R)-2-hydroxycyclopentylamino)pyrimidine-5-carboxamide]
34 | < 200 | NC(=O)c1cnc(NC2CCCCC2)nc1N[C@H]1CC[C@@H](O)CC1 [Example A-147, 2-(cyclohexylamino)-4-((1s,4s)-4-hydroxycyclohexylamino)pyrimidine-5-carboxamide]
35 | < 200 | CC1(Nc2ncc(C(N)=O)c(N[C@@H]3CCCC[C@H](O)C3)n2)CCOCC1 [Example A-181, 4-((1R,3S)-3-hydroxycycloheptylamino)-2-(4-methyltetrahydro-2H-pyran-4-ylamino)pyrimidine-5-carboxamide]
36 | < 200 | CO[C@H]1CC[C@H](Nc2ncc(C(N)=O)c(N[C@H]3CC[C@@H](CO)CC3)n2)CC1 [Example A-119, 4-((1s,4s)-4-(hydroxymethyl)cyclohexylamino)-2-((1r,4r)-4-methoxycyclohexylamino)pyrimidine-5-carboxamide]
